Usually IC50 stands for the concentration that inhibits the measured activity by half. High values mean weaker potency in that assay, low ones greater potency in that assay.

Each structure is given as a SMILES string.

This note sets out measurements from US11497752B2, “Compounds and uses thereof” (Foghorn Therapeutics Inc., priority 2018, dated 2022).

One assay deals with BRM (Homo sapiens, UniProt P51531). As to the kind of experiment: ATPase catalytic activity of BRM (ADP-Glo in vitro biochemical assay). Particulars: for BRM Max % Inhibition: Table 6. A general note: ADP-Glo first removes unused ATP, then detects ADP through luciferase.
Another assay has as its target BRG-1 (Homo sapiens, UniProt P51532). Briefly: ATPase catalytic activity of BRG-1 (ADP-Glo in vitro biochemical assay). Particulars: for BRG1 Max % Inhibition: Table 6.

Sequence of BRM (P51531 whole entry): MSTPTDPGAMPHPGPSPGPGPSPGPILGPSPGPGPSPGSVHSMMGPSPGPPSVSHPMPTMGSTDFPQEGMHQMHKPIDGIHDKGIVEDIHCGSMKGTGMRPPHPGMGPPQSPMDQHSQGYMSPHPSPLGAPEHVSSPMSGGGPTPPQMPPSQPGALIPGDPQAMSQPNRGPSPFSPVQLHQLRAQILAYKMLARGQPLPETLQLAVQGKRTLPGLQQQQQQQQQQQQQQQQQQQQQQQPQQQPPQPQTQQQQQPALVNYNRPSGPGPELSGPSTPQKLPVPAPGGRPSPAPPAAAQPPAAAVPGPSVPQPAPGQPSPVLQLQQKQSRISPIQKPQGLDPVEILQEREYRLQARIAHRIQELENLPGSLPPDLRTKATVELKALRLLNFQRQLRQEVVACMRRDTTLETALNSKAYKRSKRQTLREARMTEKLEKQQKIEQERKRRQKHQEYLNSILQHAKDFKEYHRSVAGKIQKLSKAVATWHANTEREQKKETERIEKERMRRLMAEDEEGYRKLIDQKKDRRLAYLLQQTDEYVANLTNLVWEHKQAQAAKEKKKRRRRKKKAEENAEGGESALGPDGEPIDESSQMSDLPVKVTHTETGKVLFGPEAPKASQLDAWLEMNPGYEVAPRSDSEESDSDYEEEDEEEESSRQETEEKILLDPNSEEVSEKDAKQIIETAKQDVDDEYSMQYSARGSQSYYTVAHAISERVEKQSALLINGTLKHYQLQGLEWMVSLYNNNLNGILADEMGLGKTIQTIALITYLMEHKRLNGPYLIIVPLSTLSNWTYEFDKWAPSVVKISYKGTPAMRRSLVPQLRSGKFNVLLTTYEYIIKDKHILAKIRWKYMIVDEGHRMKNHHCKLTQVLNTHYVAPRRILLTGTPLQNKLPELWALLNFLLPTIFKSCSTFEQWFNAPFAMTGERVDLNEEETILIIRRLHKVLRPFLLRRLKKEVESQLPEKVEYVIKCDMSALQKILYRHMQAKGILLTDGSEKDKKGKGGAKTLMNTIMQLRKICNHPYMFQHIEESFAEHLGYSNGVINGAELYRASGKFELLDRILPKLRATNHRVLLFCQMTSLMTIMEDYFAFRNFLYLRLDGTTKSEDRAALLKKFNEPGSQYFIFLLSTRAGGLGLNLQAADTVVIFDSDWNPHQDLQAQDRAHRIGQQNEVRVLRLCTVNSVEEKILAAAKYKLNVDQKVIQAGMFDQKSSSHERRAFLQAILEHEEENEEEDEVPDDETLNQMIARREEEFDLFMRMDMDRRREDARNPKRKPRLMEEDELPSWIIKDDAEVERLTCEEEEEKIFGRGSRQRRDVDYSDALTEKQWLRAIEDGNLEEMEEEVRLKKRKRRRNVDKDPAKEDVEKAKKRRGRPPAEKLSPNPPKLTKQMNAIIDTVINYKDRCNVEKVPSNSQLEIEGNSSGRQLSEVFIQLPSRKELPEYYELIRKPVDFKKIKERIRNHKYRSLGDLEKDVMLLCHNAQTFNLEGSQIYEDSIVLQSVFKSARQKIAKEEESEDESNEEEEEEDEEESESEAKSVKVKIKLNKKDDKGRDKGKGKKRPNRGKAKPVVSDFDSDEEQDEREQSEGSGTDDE
Sequence of BRG-1 (P51532 whole entry): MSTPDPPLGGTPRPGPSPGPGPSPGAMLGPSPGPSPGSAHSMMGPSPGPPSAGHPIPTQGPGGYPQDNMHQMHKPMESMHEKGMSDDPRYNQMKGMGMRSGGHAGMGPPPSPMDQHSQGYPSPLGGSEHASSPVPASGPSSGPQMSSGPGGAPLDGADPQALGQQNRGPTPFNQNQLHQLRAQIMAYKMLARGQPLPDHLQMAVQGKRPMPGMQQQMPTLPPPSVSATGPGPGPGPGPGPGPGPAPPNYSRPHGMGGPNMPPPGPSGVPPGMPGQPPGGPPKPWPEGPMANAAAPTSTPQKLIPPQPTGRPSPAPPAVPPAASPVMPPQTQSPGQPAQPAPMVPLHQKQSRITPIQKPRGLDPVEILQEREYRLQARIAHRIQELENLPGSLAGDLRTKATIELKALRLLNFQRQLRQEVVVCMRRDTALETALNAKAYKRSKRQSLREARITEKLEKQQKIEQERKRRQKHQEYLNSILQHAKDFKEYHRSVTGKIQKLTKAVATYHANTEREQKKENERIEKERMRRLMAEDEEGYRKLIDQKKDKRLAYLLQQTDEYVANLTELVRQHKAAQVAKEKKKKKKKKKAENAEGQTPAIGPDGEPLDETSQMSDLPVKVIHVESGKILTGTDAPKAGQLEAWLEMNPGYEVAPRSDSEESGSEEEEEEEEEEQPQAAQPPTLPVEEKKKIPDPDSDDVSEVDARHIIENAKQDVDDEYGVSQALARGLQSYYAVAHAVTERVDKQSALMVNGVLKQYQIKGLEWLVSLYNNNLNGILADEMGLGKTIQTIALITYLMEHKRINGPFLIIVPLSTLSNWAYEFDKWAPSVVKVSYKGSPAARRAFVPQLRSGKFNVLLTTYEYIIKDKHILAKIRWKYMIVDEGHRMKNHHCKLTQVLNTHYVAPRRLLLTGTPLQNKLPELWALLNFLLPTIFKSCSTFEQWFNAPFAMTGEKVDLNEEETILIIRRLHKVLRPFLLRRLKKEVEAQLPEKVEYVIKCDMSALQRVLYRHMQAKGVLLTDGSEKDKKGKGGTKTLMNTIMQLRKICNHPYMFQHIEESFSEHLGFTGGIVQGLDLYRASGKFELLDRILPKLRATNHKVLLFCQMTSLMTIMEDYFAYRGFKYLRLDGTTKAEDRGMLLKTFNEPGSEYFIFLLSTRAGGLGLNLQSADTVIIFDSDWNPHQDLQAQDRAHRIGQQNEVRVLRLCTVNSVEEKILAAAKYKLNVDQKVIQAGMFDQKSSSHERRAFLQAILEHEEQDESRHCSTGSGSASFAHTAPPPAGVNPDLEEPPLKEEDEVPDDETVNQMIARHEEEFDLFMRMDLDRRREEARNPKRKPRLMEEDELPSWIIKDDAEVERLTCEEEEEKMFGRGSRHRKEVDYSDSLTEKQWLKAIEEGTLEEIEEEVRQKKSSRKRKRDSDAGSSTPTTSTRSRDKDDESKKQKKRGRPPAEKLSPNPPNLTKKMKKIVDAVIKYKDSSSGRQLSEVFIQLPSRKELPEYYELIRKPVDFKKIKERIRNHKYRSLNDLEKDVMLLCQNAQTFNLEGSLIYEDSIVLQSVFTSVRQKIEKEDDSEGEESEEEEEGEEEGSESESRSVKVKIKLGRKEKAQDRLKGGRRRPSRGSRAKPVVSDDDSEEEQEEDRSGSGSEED

Take `CSCC[C@H](NC(=O)c1ccc(N)cc1)C(=O)Nc1nc(-c2cccc(CNC(C)=O)c2)cs1` [Compound 120, (S)-N-(1-((4-(3-(acetamidomethyl)phenyl)thiazol-2-yl)amino)-4-(methylthio)-1-oxobutan-2-yl)-4-aminobenzamide]: at BRM, the IC50 was in the range of 100 to 1000 nM and the “BRM Max % Inhibition” value is listed as >90%. On BRG-1, the IC50 is 100 to 1000 nM and the “BRG1 Max % Inhibition” value is listed as >90%.

For `CSCC[C@H](NC(=O)c1ccc(N)cc1)C(=O)Nc1nc(-c2ccc(CNC(C)=O)cc2)cs1` [Compound 121, (S)-N-(1-((4-(4-(acetamidomethyl)phenyl)thiazol-2-yl)amino)-4-(methylthio)-1-oxobutan-2-yl)-4-aminobenzamide], on BRM, the IC50 is 100 to 1000 nM and the “BRM Max % Inhibition” value was >95%. Besides, on BRG-1, the IC50 lay in the range of 100 to 1000 nM and the “BRG1 Max % Inhibition” value is given as >95%.

`COC(=O)N1CCC[C@H](c2csc(NC(=O)CNC(=O)c3ccc(N)cc3)n2)C1` [Compound 122, (S)-methyl 3-(2-(2-(4-aminobenzamido)acetamido)thiazol-4-yl)piperidine-1-carboxylate]: on BRM, the 50% inhibitory concentration (IC50) lay within 100 to 1000 nM and the “BRM Max % Inhibition” value was >95%. Further, at BRG-1, the IC50 lay in the range of 1000 to 10000 nM and the “BRG1 Max % Inhibition” value is listed as >90%.

Regarding `CC(=O)NCc1ccc(-c2cccc(-c3csc(NC(=O)CNC(=O)c4ccc(N)cc4)n3)c2)cc1` [Compound 123, N-(2-((4-(4′-(acetamidomethyl)-[1,1′-biphenyl]-3-yl)thiazol-2-yl)amino)-2-oxoethyl)-4-aminobenzamide], on BRM, the IC50 lay within 100 to 1000 nM and the “BRM Max % Inhibition” value was >80%. In addition, at BRG-1, the half-maximal inhibitory concentration (IC50) was in the range of 100 to 1000 nM and the “BRG1 Max % Inhibition” value is listed as >80%.

With `CC(=O)NCc1cccc(-c2cccc(-c3csc(NC(=O)CNC(=O)c4ccc(N)cc4)n3)c2)c1` [Compound 124, N-(2-((4-(3′-(acetamidomethyl)-[1,1′-biphenyl]-3-yl)thiazol-2-yl)amino)-2-oxoethyl)-4-aminobenzamide], on BRM, the IC50 lay within 100 to 1000 nM and the “BRM Max % Inhibition” value is given as >95%. On BRG-1, the IC50 was in the range of 100 to 1000 nM and the “BRG1 Max % Inhibition” value was >95%.

In the case of `C[C@H](NC(=O)c1ccc(N)cc1)C(=O)Nc1nc(-c2cccc(-c3ccncc3)c2)cs1` [Compound 125, (S)-4-amino-N-(1-oxo-1-((4-(3-(pyridin-4-yl)phenyl)thiazol-2-yl)amino)propan-2-yl)benzamide], on BRM, the half-inhibitory concentration (IC50) was < 100 nM and the “BRM Max % Inhibition” value is >95%. For the same compound, at BRG-1, the IC50 is < 100 nM and the “BRG1 Max % Inhibition” value was >95%.

Regarding `CNc1ccc(C(=O)NCC(=O)Nc2nc(-c3cccc(-c4ccncc4)c3)cs2)cc1` [Compound 126, 4-(methylamino)-N-(2-oxo-2-((4-(3-(pyridin-4-yl)phenyl)thiazol-2-yl)amino)ethyl)benzamide], on BRM, the IC50 is < 100 nM and the “BRM Max % Inhibition” value is >80%. In addition, on BRG-1, the IC50 is < 100 nM and the “BRG1 Max % Inhibition” value is >80%.

With `COc1ccc(-c2cccc(-c3csc(NC(=O)CNC(=O)c4ccc(N)cc4)n3)c2)cn1` [Compound 127, 4-amino-N-(2-((4-(3-(6-methoxypyridin-3-yl)phenyl)thiazol-2-yl)amino)-2-oxoethyl)benzamide], at BRM, the IC50 was 100 to 1000 nM and the “BRM Max % Inhibition” value is >90%. For the same compound, on BRG-1, the half-inhibitory concentration (IC50) fell in the range of 100 to 1000 nM and the “BRG1 Max % Inhibition” value is given as >80%.

Consider `CSCC[C@H](NC(=O)c1ccc(N)cc1)C(=O)Nc1nc(-c2cccc(-c3nnco3)c2)cs1` [Compound 128, (S)-N-(1-((4-(3-(1,3,4-oxadiazol-2-yl)phenyl)thiazol-2-yl)amino)-4-(methylthio)-1-oxobutan-2-yl)-4-aminobenzamide], for which, on BRM, the half-inhibitory concentration (IC50) was < 100 nM and the “BRM Max % Inhibition” value was >95%. For the same compound, on BRG-1, the concentration for half-maximal inhibition (IC50) was < 100 nM and the “BRG1 Max % Inhibition” value was >95%.

Take `CC(=O)N(C)Cc1cccc(-c2cccc(-c3csc(NC(=O)CNC(=O)c4ccc(N)cc4)n3)c2)c1` [Compound 129, 4-amino-N-(2-((4-(3′-((N-methylacetamido)methyl)-[1,1′-biphenyl]-3-yl)thiazol-2-yl)amino)-2-oxoethyl)benzamide]: on BRM, the IC50 is 100 to 1000 nM and the “BRM Max % Inhibition” value is >95%. At BRG-1, the IC50 was 100 to 1000 nM and the “BRG1 Max % Inhibition” value is reported as >95%.

`CNC(=O)c1ccc(-c2cccc(-c3csc(NC(=O)CNC(=O)c4ccc(N)cc4)n3)c2)cc1` [Compound 130, 3′-(2-(2-(4-aminobenzamido)acetamido)thiazol-4-yl)-N-methyl-[1,1′-biphenyl]-4-carboxamide]: on BRM, the IC50 fell in the range of 100 to 1000 nM and the “BRM Max % Inhibition” value is reported as >70%. For the same compound, at BRG-1, the IC50 was in the range of 1000 to 10000 nM and the “BRG1 Max % Inhibition” value is >70%.

As to `CN(C)C(=O)c1cccc(-c2cccc(-c3csc(NC(=O)CNC(=O)c4ccc(N)cc4)n3)c2)c1` [Compound 131, 3′-(2-(2-(4-aminobenzamido)acetamido)thiazol-4-yl)-N,N-dimethyl-[1,1′-biphenyl]-3-carboxamide], on BRM, the IC50 was < 100 nM and the “BRM Max % Inhibition” value is listed as >95%. At BRG-1, the IC50 was < 100 nM and the “BRG1 Max % Inhibition” value is recorded as >95%.

On to `CN(C)c1ccc(C(=O)NCC(=O)Nc2nc(-c3cccc(-c4ccncc4)c3)cs2)cc1` [Compound 132, 4-(dimethylamino)-N-(2-oxo-2-((4-(3-(pyridin-4-yl)phenyl)thiazol-2-yl)amino)ethyl)benzamide], for which, at BRM, the half-inhibitory concentration (IC50) is < 100 nM and the “BRM Max % Inhibition” value is >80%. In addition, on BRG-1, the IC50 is < 100 nM and the “BRG1 Max % Inhibition” value is recorded as >70%.

Take `Nc1ccc(C(=O)NCC(=O)Nc2nc(-c3cccc(-c4ccnc(N)c4)c3)cs2)cc1` [Compound 133, 4-amino-N-(2-((4-(3-(2-aminopyridin-4-yl)phenyl)thiazol-2-yl)amino)-2-oxoethyl)benzamide]: at BRM, the half-maximal inhibitory concentration (IC50) was < 100 nM and the “BRM Max % Inhibition” value was >95%. On BRG-1, the IC50 was < 100 nM and the “BRG1 Max % Inhibition” value is given as >95%.

Turning to `CS(=O)(=O)c1ccc(-c2cccc(-c3csc(NC(=O)CNC(=O)c4ccc(N)cc4)n3)c2)cc1` [Compound 134, 4-amino-N-(2-((4-(4′-(methylsulfonyl)-[1,1′-biphenyl]-3-yl)thiazol-2-yl)amino)-2-oxoethyl)benzamide], on BRM, the 50% inhibitory concentration (IC50) was 100 to 1000 nM and the “BRM Max % Inhibition” value is listed as >50%. For the same compound, on BRG-1, the half-inhibitory concentration (IC50) was in the range of 100 to 1000 nM and the “BRG1 Max % Inhibition” value is >50%.

As for `NCc1cccc(-c2cccc(-c3csc(NC(=O)CNC(=O)c4ccc(N)cc4)n3)c2)c1` [Compound 135, 4-amino-N-(2-((4-(3′-(aminomethyl)-[1,1′-biphenyl]-3-yl)thiazol-2-yl)amino)-2-oxoethyl)benzamide], on BRM, the IC50 is < 100 nM and the “BRM Max % Inhibition” value is on record as >95%. In addition, on BRG-1, the half-inhibitory concentration (IC50) is < 100 nM and the “BRG1 Max % Inhibition” value is listed as >95%.

Take `Nc1ccc(C(=O)NCC(=O)Nc2nc(-c3cccc(-c4cccc(C(=O)O)c4)c3)cs2)cc1` [Compound 136, 3′-(2-(2-(4-aminobenzamido)acetamido)thiazol-4-yl)-[1,1′-biphenyl]-3-carboxylic acid]: on BRM, the IC50 is 100 to 1000 nM and the “BRM Max % Inhibition” value is recorded as >95%. Moreover, on BRG-1, the IC50 was 100 to 1000 nM and the “BRG1 Max % Inhibition” value is listed as >95%.

For the compound `CN(C)C(=O)c1ccc(-c2cccc(-c3csc(NC(=O)CNC(=O)c4ccc(N)cc4)n3)c2)cc1` [Compound 137, 3′-(2-(2-(4-aminobenzamido)acetamido)thiazol-4-yl)-N,N-dimethyl-[1,1′-biphenyl]-4-carboxamide], on BRM, the half-inhibitory concentration (IC50) was in the range of 100 to 1000 nM and the “BRM Max % Inhibition” value is >90%. Moreover, on BRG-1, the half-maximal inhibitory concentration (IC50) lay in the range of 100 to 1000 nM and the “BRG1 Max % Inhibition” value is >95%.

In the case of `CC(=O)N(C)Cc1ccc(-c2cccc(-c3csc(NC(=O)CNC(=O)c4ccc(N)cc4)n3)c2)cc1` [Compound 138, 4-amino-N-(2-((4-(4′-((N-methylacetamido)methyl)-[1,1′-biphenyl]-3-yl)thiazol-2-yl)amino)-2-oxoethyl)benzamide], on BRM, the 50% inhibitory concentration (IC50) was in the range of 100 to 1000 nM and the “BRM Max % Inhibition” value is given as >90%. For the same compound, at BRG-1, the 50% inhibitory concentration (IC50) fell in the range of 100 to 1000 nM and the “BRG1 Max % Inhibition” value is on record as >90%.

Regarding `Nc1ccc(C(=O)NCC(=O)Nc2nc(-c3cccc(-c4ccc(O)cc4)c3)cs2)cc1` [Compound 139, 4-amino-N-(2-((4-(4′-hydroxy-[1,1′-biphenyl]-3-yl)thiazol-2-yl)amino)-2-oxoethyl)benzamide], on BRM, the IC50 was < 100 nM and the “BRM Max % Inhibition” value was >95%. Further, at BRG-1, the half-maximal inhibitory concentration (IC50) was < 100 nM and the “BRG1 Max % Inhibition” value is >95%.

Consider `Cn1ccc(-c2cccc(-c3csc(NC(=O)CNC(=O)c4ccc(N)cc4)n3)c2)cc1=O` [Compound 140, 4-amino-N-(2-((4-(3-(1-methyl-2-oxo-1,2-dihydropyridin-4-yl)phenyl)thiazol-2-yl)amino)-2-oxoethyl)benzamide], for which, on BRM, the IC50 is 100 to 1000 nM and the “BRM Max % Inhibition” value is on record as >95%. In addition, at BRG-1, the IC50 fell in the range of 100 to 1000 nM and the “BRG1 Max % Inhibition” value was >90%.

Regarding `Nc1ccc(C(=O)NCC(=O)Nc2nc(-c3cccc(-c4cccc(O)c4)c3)cs2)cc1` [Compound 141, 4-amino-N-(2-((4-(3′-hydroxy-[1,1′-biphenyl]-3-yl)thiazol-2-yl)amino)-2-oxoethyl)benzamide], on BRM, the IC50 is < 100 nM and the “BRM Max % Inhibition” value is >95%. Besides, on BRG-1, the IC50 fell in the range of 100 to 1000 nM and the “BRG1 Max % Inhibition” value is recorded as >95%.

For `Nc1ccc(C(=O)NCC(=O)Nc2nc(-c3cccc(-c4ccccc4F)c3)cs2)cc1` [Compound 142, 4-amino-N-(2-((4-(2′-fluoro-[1,1′-biphenyl]-3-yl)thiazol-2-yl)\amino)-2-oxoethyl)benzamide], on BRM, the half-maximal inhibitory concentration (IC50) lay within 100 to 1000 nM and the “BRM Max % Inhibition” value is >90%. In addition, on BRG-1, the IC50 was 100 to 1000 nM and the “BRG1 Max % Inhibition” value was >90%.
